Source: paper PMC3551756, “HIV-1 Fusion Is Blocked through Binding of GB Virus C E2D Peptides to the HIV-1 gp41 Disulfide Loop” (PLoS ONE, 2013)

How the values were obtained:
[1] = system: HIV-1 Env (NL4-3 gp160, X4env) on 293T cells; test: HIV-1 gp160 (X4env) binding of FITC-labeled E2 peptides, flow cytometry; conditions: FITC-labeled peptides 1 µM; for binding to HIV-1 Env-expressing cells: sCD4 pretreated, 1 h 37°C, X4env- vs vector-transfected 293T cells, three independent experiments each in duplicate; for background attachment to mock- or vector-transfected cells: mock- or vector-transfected 293T cells
Description: 293T cells were transiently transfected with an HIV-1 Env expression vector, coding for the CXCR4-tropic NL4-3 gp160 precursor (X4env) for surface expression of gp120-gp41 Env trimers or empty plasmid as control. After 2 days of cultivation, cells were incubated with 1 µg sCD4 and 1 µM FITC-conjugated E2 peptides for 1 h at 37°C respectively. Subsequently, cells were washed, resuspended in PBS, and analyzed by flow cytometry using a BD™ LSR II flow cytometer (Becton Dickinson Biosciences, Germany). Flow cytometer data were collected with BD FACSDiva™ and analyzed with FCS Express V3. In parallel, gp160 expression was determined by staining with HIV-1 gp120 mAbs (2G12 and 17b) and an anti-human IgG-FITC pAb (Dako, Germany).
Previously, we have shown that the target of the HIV-1-inhibitory E2 peptides is most likely located on the HIV-1 particle, rather than on the cell. The surface of the HIV-1 particle consists of a lipid bilayer with incorporated host cell proteins and a limited number of functional envelope (Env) trimers (on average 14±7). Therefore, we tested whether the HIV-1-inhibitory E2 peptides interact with trimeric HIV-1 Env proteins expressed on the surface of transfected cells. For this purpose, 293T cells were transiently transfected with an HIV-1 Env expression vector, coding for the gp160 precursor of the CXCR4-tropic NL4-3 envelope (X4env). Binding of FITC-labeled E2 peptides was monitored by flow cytometry.
Figure 4 Recombinant E2_340-Fc protein and E2-derived peptides bind HIV-1 gp41. (A) 293T cells expressing NL4-3 envelope (X4env) or empty plasmid as control were incubated with sCD4 and FITC-conjugated E2 peptides, respectively. Peptide binding was analyzed by flow cytometry. Percentages illustrate the increase of cell binding to X4env-transfected cells. The increase is normalized to the background binding of E2 peptides to mock-transfected cells by calculating the RTCN value. […] (C) E2 peptides with increasing amounts were added to recombinant E2_340-Fc protein (at constant concentration) and then transferred to immobilized recombinant gp41MN.

CD4 = CD4 surface expression, flow cytometry; type: cell-based, human; conditions: PBMC and TZM-bl cells; E2 peptides 25 µM, PMA 40 ng/ml; 6 hr; FACS; RTCN vs mock; average of two independent experiments each in triplicate
Description: PHA/IL-2-stimulated PBMC or TZM-bl cells were incubated with E2 peptides (25 µM), phorbol 12-myristate 13-acetate (PMA; 40 ng/ml), SDF-1α (1 µg/ml) or RANTES (50 nM) for 6 hr. CD4, CXCR4 and CCR5 surface expression was analyzed by using standard FACS staining protocols. Cells were washed with PBS and incubated for 30 min at 4°C with PE-labeled antibodies (CD4 clone SK3, CXCR4 clone 12G5, and CCR5 clone 2D7, BD Biosciences, Germany). Subsequently, washed cells were resuspended in PBS and analyzed with a FACSCalibur™ flow cytometer (BD Biosciences, Germany).
The non-HIV-1-inhibitory peptide P28 derived from the C-terminal part of E2 (residue 271 to 290), served as a negative control.
CD4, CXCR4 and CCR5 expression on PBMC (A) and TZM-bl cells (B) after preincubation with E2 peptides were determined by flow cytometry analysis. […] Percentages illustrate the ratio-to-cell-negative (RTCN) values that were calculated from the percentage of positive cells and the fluorescence intensity of peptide-incubated cells compared to mock-incubated cells. Columns show average values ±SD of two independent experiments each performed in triplicate. *: p<0.05; **: p<0.01 (mock- vs. inhibitor-incubated cells).

T32 = test: Unspecific binding of E2 peptides to antibody T32; conditions: data not shown
F240 = test: Unspecific binding of E2 peptides to antibody F240; conditions: data not shown
[2] = system: 6-helix bundle (N36/C34-biotin); test: Inhibition of 6-HB formation, ELISA; type: binding, HIV-1; conditions: mAb NC-1 capture, N36 0.25 µM, C34-biotin 0.25 µM, graded peptide, 30 min 37°C, triplicate
Description: Briefly, 96-well polystyrene plates were coated with the 6-HB-specific monoclonal antibody, NC-1 IgG, (described by) (2 µg/ml in 0.1 M Tris, pH 8.8), and then blocked with 2% non-fat milk. N36 (0.25 µM), the tested peptides and C34 as control were added at graded concentrations into the wells. After incubation for 30 min at 37°C, C34-biotin (0.25 µM) was added, followed by incubation for 45 min at 37°C and washing with wash buffer (PBS containing 0.05% Tween-20) six times. Streptavidin-labeled horseradish peroxidase (Invitrogen, Grand Island, NY) and the substrate 3,3′,5,5′-tetramethylbenzidine (Sigma, St. Louis, MO) were added sequentially. Absorbance at 450 nm (OD450) was measured. The percent inhibition of 6-HB formation by the peptides was calculated as described before.
Figure 5 E2-derived peptides bind to the disulfide loop of gp41. (A) Illustration of gp41 variants (strains IIIB, MN) and peptides (N36, C34) used in ELISA as well as the binding epitopes of different monoclonal gp41 antibodies. Gp41 consists of the N-terminal fusion peptide (FP), the N- and C-heptad repeats (NHR, CHR) that are connected by the disulfide loop region (C-C loop), the membrane proximal external region (MPER), the α-helical transmembrane-spanning domain (TM), and the cytoplasmic tail (CP). […] Each sample was tested in triplicate. This experiment was repeated twice and similar results were obtained. […]

[3] = biological target: E2_340-Fc / HIV-1 gp41MN interaction (Human immunodeficiency virus type 1 group M subtype B, UniProt P05877); type: binding; conditions: ELISA, immobilized gp41MN, E2_340-Fc constant (5 µg/ml), increasing peptide; three independent experiments each in duplicate
Sequence of E2_340-Fc / HIV-1 gp41MN interaction (P05877 514-856): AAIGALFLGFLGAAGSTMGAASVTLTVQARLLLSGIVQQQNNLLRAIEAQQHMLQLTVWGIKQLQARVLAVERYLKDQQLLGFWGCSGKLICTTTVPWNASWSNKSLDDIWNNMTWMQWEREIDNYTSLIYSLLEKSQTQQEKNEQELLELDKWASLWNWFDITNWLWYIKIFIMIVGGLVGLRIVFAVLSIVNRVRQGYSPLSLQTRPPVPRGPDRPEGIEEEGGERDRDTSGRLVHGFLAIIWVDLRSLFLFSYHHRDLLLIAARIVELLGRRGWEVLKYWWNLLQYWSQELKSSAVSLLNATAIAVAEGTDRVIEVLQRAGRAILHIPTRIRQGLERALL
Description: Flat-bottom, 96-well Microtest ELISA plates (Sarstedt, Germany) were coated overnight at 4°C with recombinant HIV-1 gp120 (0.5 µg/ml), gp41 (0.22 µg/ml) proteins, or with streptavidin (4 µg/ml) in coating buffer (0.1 M NaHCO3, 0.1 M Na2CO3, pH 9.87). Nonspecific binding was blocked (blocking buffer: 1% BSA, 0.1% Tween-20 in phosphate buffer, pH 7.2) for 1 h at room temperature, followed by washing steps (wash buffer: 0.1% Tween in phosphate buffer, pH 7.2). […] All plates were then incubated with recombinant E2_340-Fc or Fc protein in serial dilutions in sample buffer (phosphate buffer, pH 7.2) for 3 hr at room temperature. To perform the competitive ELISAs, the recombinant E2_340-Fc protein was adjusted at 5 µg/ml and the monoclonal gp41 antibodies (246-D, F240, T32, D50, 2F5, 4E10, Chessie 8 [all: NIH AIDS Research and Reference Reagent Program], and 5F3 [Polymun, Austria]) at 100 µM. After washing procedure, the plates were incubated for 1 h with polyclonal rabbit anti-human IgG peroxidase antibody (Dako, Germany) 1∶6000 in sample buffer and washed. Plates were developed with TMB peroxidase substrate solution (KPL, USA), or with OPD/H2O2 solution in the dark. Absorbances (ODs) were read at 450 or 492 nm, respectively, using a multi-channel photometer (ELISA-Reader AxSYM, Abbott Laboratory, USA).
Competitive binding of E2 and gp120 peptides (N35, N35s) with recombinant E2_340-Fc protein to immobilized recombinant gp41MN. Simultaneously to E2_340-Fc incubation peptides of E2 or gp120 were added with increasing amounts.

| Compound | binding to HIV-1 Env-expressing cells [1] | background attachment to mock- or vector-transfected cells [1] | CD4 surface presentation (CD4) | unspecific binding to antibody T32 (T32) | unspecific binding to antibody F240 (F240) | inhibition of 6-HB formation [2] | competition with E2_340-Fc for gp41 binding [3] |
| --- | --- | --- | --- | --- | --- | --- | --- |
| CC(=O)N[C@@H](CC(C)C)C(=O)N[C@@H](CS)C(=O)N[C@@H](CC(=O)O)C(=O)N[C@@H](CS)C(=O)N1CCC[C@H]1C(=O)N[C@@H](CC(N)=O)C(=O)NCC(=O)N1CCC[C@H]1C(=O)N[C@@H](Cc1c[nH]c2ccccc12)C(=O)N[C@H](C(=O)N[C@@H](Cc1c[nH]c2ccccc12)C(=O)N[C@H](C(=O)N1CCC[C@H]1C(=O)N[C@@H](C)C(=O)N[C@@H](Cc1ccccc1)C(=O)N[C@@H](CS)C(=O)N[C@@H](CCC(N)=O)C(=O)N[C@@H](C)C(=O)N[C@H](C(=O)NCC(=O)O)C(C)C)C(C)C)C(C)C [P6-2] | significant increase in the binding | background attachment | no relevant effect on HIV-1 receptor presentation | No unspecific binding | No unspecific binding | Neither P4-7 nor P6-2 was able to interfere with the formation of 6-HB | abrogated the protein-protein interaction between HIV-1 gp41 and GBV-C E2 in a dose-dependent manner |
| Ac-WDRGNVTLLCDCPNGPWVWV [P4-7, 20 mer peptide presenting amino acids 37 to 56 of the GBV-C E2 protein] | significant increase in the binding | background attachment | no relevant effect on HIV-1 receptor presentation | No unspecific binding | No unspecific binding | Neither P4-7 nor P6-2 was able to interfere with the formation of 6-HB | abrogated the protein-protein interaction between HIV-1 gp41 and GBV-C E2 in a dose-dependent manner |
